Assay results: ChEMBL document CHEMBL4152339, “Design and synthesis of novel 1H-tetrazol-5-amine based potent antimicrobial agents: DNA topoisomerase IV and gyrase affinity evaluation supported by molecular docking studies” (Eur J Med Chem, 2018)
In brackets after ≈: the same amount, converted by molar mass.

How the values were obtained:
[1] = test system: Staphylococcus aureus; assay: Antibacterial activity against Staphylococcus aureus NCTC 4163 after 18 hrs by CLSI disc diffusion method; type: functional; conditions: NCTC 4163, 18 h
[2] = test system: Staphylococcus aureus; assay: Antibacterial activity against Staphylococcus aureus ATCC 25923 after 18 hrs by CLSI disc diffusion method; type: functional; conditions: ATCC 25923, 18 h
[3] = test system: Staphylococcus aureus; assay: Antibacterial activity against Staphylococcus aureus ATCC 6538 after 18 hrs by CLSI disc diffusion method; type: functional; conditions: ATCC 6538, 18 h
[4] = test system: Staphylococcus epidermidis; assay: Antibacterial activity against Staphylococcus epidermidis ATCC 12228 after 18 hrs by CLSI disc diffusion method; type: functional; conditions: ATCC 12228, 18 h
[5] = test system: Staphylococcus epidermidis; assay: Antibacterial activity against Staphylococcus epidermidis ATCC 35984 after 18 hrs by CLSI […] method; type: functional; conditions: ATCC 35984, 18 h
[6] = test system: Bacillus spizizenii; assay: Antibacterial activity against Bacillus subtilis ATCC 6633 after 18 hrs by CLSI disc diffusion method; type: functional; conditions: ATCC 6633, 18 h
[7] = test system: Bacillus cereus; assay: Antibacterial activity against Bacillus cereus ATCC 11778 after 18 hrs by CLSI disc diffusion method; type: functional; conditions: ATCC 11778, 18 h
[8] = test system: Enterococcus hirae; assay: Antibacterial activity against Enterococcus hirae ATCC 10541 after 18 hrs by CLSI disc diffusion method; type: functional; conditions: ATCC 10541, 18 h
[9] = test system: Enterococcus faecalis; assay: Antibacterial activity against Enterococcus faecalis ATCC 29212 after 18 hrs by CLSI disc diffusion method; type: functional; conditions: ATCC 29212, 18 h
[10] = test system: Micrococcus luteus; assay: Antibacterial activity against Micrococcus luteus ATCC 10240 after 18 hrs by CLSI disc diffusion method; type: functional; conditions: ATCC 10240, 18 h
[11] = test system: Micrococcus luteus; assay: Antibacterial activity against Micrococcus luteus ATCC 9341 after 18 hrs by CLSI disc diffusion method; type: functional; conditions: ATCC 9341, 18 h
[12] = test system: Escherichia coli; assay: Antibacterial activity against Escherichia coli ATCC 10538 after 18 hrs by CLSI disc diffusion method; type: functional; conditions: ATCC 10538, 18 h
[13] = test system: Proteus vulgaris; assay: Antibacterial activity against Proteus vulgaris NCTC 4635 after 18 hrs by CLSI disc diffusion method; type: functional; conditions: NCTC 4635, 18 h
[14] = test system: Pseudomonas aeruginosa; assay: Antibacterial activity against Pseudomonas aeruginosa ATCC 15442 after 18 hrs by CLSI disc diffusion method; type: functional; conditions: ATCC 15442, 18 h
[15] = test system: Pseudomonas aeruginosa; assay: Antibacterial activity against Pseudomonas aeruginosa ATCC 27853 after 18 hrs by CLSI disc diffusion method; type: functional; conditions: ATCC 27853, 18 h
[16] = test system: Bordetella bronchiseptica; assay: Antibacterial activity against Bordetella bronchiseptica ATCC 4617 after 18 hrs by CLSI disc diffusion method; type: functional; conditions: ATCC 4617, 18 h
[17] = test system: A549; assay: Cytotoxicity activity against human A549 cells assessed as reduction in cell viability after 72 hrs by MTT assay; type: cell-based; conditions: A549, 72 h
[18] = test system: HaCaT; assay: Cytotoxicity activity against human HaCaT cells assessed as reduction in cell viability after 72 hrs by MTT assay; type: cell-based
[19] = Selectivity index, ratio of IC50 for human HaCaT cells to MIC for Staphylococcus aureus NCTC 4163; type: toxicity; conditions: read-out: Selectivity Index
[20] = Selectivity index, ratio of IC50 for human HaCaT cells to MIC for Bacillus subtilis ATCC 6633; type: toxicity; conditions: read-out: Selectivity Index
[21] = Selectivity index, ratio of IC50 for human HaCaT cells to MIC for Enterococcus hirae ATCC 10541; type: toxicity; conditions: read-out: Selectivity Index
[22] = Selectivity index, ratio of IC50 for human HaCaT cells to MIC for Micrococcus luteus ATCC 10240; type: toxicity; conditions: read-out: Selectivity Index
[23] = Selectivity index, ratio of IC50 for human HaCaT cells to MIC for Escherichia coli ATCC 10538; type: toxicity; conditions: read-out: Selectivity Index
[24] = Selectivity index, ratio of IC50 for human HaCaT cells to MIC for Proteus vulgaris NCTC 4635; type: toxicity; conditions: read-out: Selectivity Index
[25] = Selectivity index, ratio of IC50 for human HaCaT cells to MIC for Bordetella bronchiseptica ATCC 4617; type: toxicity; conditions: read-out: Selectivity Index

**Q.** Which MIC [1] does the source give for Fc1ccc(-n2nnnc2Nn2cnnc2)cc1Cl here?
**A.** 14 µM (≈ 3.93 µg/mL)

**Q.** And the MIC [2]?
**A.** 29 µM (≈ 8.14 µg/mL)

**Q.** And the MIC [3]?
**A.** 14 µM (≈ 3.93 µg/mL)

**Q.** What about the MIC [4] of the same compound?
**A.** 29 µM (≈ 8.14 µg/mL)

**Q.** What about the MIC [5] of the same compound?
**A.** 14 µM (≈ 3.93 µg/mL)

**Q.** What about the MIC [6] of the same compound?
**A.** 57 µM (≈ 16 µg/mL)

**Q.** And the MIC [7]?
**A.** 29 µM (≈ 8.14 µg/mL)

**Q.** What about the MIC [8] of the same compound?
**A.** 29 µM (≈ 8.14 µg/mL)

**Q.** And the MIC [9]?
**A.** 114 µM (≈ 32 µg/mL)

**Q.** What about the MIC [10] of the same compound?
**A.** 57 µM (≈ 16 µg/mL)

**Q.** And the MIC [11]?
**A.** 57 µM (≈ 16 µg/mL)

**Q.** And the MIC [12]?
**A.** 57 µM (≈ 16 µg/mL)

**Q.** And the MIC [13]?
**A.** 57 µM (≈ 16 µg/mL)

**Q.** And the MIC [14]?
**A.** 914 µM (≈ 257 µg/mL)

**Q.** And the MIC [15]?
**A.** > 914 µM

**Q.** And the MIC [16]?
**A.** > 914 µM

**Q.** And the IC50 [17]?
**A.** 60 µM

**Q.** And the IC50 [18]?
**A.** 62 µM

**Q.** And the selectivity ratio [19]?
**A.** 4.42

**Q.** And the selectivity ratio [20]?
**A.** 1.08

**Q.** And the selectivity ratio [21]?
**A.** 2.13

**Q.** And the selectivity ratio [22]?
**A.** 1.08

**Q.** What about the selectivity ratio [23] of the same compound?
**A.** 1.08

**Q.** And the selectivity ratio [24]?
**A.** 1.08

**Q.** What about the selectivity ratio [25] of the same compound?
**A.** 0.07
